Data on six compounds can be found in patent US20100080862A1, “COMPOSITIONS AND FOODS FOR IMPROVING LIPID METABOLISM” (Kirin Beer Kabushiki Kaisha, priority 2002, published 2010).

Test [1] deals with human PPARγ. The test is described as follows: PPARγ agonist screening system, PPRE luciferase reporter in CV-1 cells (Example 9). The settings on record: for PPARγ/RXR alpha activating activity compared to that with 1 μM pioglitazone: at a concentration of 10 μm; for PPARγ/RXR alpha activating activity (relative luciferase activity): concentrations of 1, 5, 10, and 50 μM, 48 hours. In kind it is cell-based. The text has this:
In order to construct a human PPARγ expression plasmid, a PPARγ ORF was cloned from the human heart cDNA library (Gibco). After the sequence was confirmed, the cloned ORF was ligated to the NheI-SalI site of the expression vector pCI neo (Promega). The sequences of primers used for the cloning were as follows: […]
Next, in order to construct a reporter plasmid, oligo DNAs having 3 copies of PPRE was constructed and inserted at the KpnI-BglII site of the firefly luciferase reporter vector pGL3-promoter vector (Promega), after which the sequences were confirmed. The sequences of oligo-DNAs containing PPRE are as follows:
CV-1 cells were transfected with the above-mentioned plasmid along with the renilla luciferase reporter vector pRL-SV40 vector for compensation (Promega) using Lipofect AMINE (Gibco). The CV-1 cells used were cultured at a concentration of 5×10^4 cells/ml in 2 ml of DMEM (Gibco) supplemented with 10% fetal calf serum (Gibco) and penicillin-streptomycin (10000 units and 1 mg/ml, respectively; Gibco) on a 12-well plate at 37° C. in an atmosphere of 5% CO2 on the day before transfection. After the transfection, cells for the positive control were cultured in the abovementioned DMEM medium containing 1 μm pioglitazone (Takeda). After cultivating for 48 hours, the cells were recovered and the lysate was prepared using a Dual-Luciferase reporter assay system (Promega) to measure firefly luciferase and renilla luciferase activity using a luminometer (Luminous CT-9000D, DIA-IATRON). Relative luciferase activity was obtained by dividing the value for firefly luciferase activity by the value for renilla luciferase activity.

The target in test [2] is T1, fused protein of PPARγ with yeast Gal4 protein (Homo sapiens, UniProt P37231).
T1 construct: 204a.a.-505a.a) was cloned; expressed in transfected cells; host or cells: CV-1 cells
T1 sequence (P37231 204-505): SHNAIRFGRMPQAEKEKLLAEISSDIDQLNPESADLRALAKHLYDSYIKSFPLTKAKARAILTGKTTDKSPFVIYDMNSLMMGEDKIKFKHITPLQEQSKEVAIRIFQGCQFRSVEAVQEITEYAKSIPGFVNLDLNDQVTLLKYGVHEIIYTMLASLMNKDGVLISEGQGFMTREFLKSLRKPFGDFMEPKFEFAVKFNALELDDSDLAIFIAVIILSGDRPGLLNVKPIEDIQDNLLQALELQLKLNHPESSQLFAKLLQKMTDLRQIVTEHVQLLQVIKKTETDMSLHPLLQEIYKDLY
In words: PPARγ agonist screening system consisting of a fused protein, Gal4 luciferase reporter in CV-1 cells (Example 10). In kind it is cell-based. The settings on record: humulone compounds at 1, 3, and 10 μM, 48 hours. The text has this:
In order to construct a human PPARγ expression plasmid, a PPARγ ligand binding domain (LBD; 204a.a.-505a.a) was cloned from the human heart cDNA library (Gibco). After the sequence was confirmed, the cloned ORF was ligated to the BamHI-Kpn1 site of the expression vector pBind (Promega) to construct the expression vector pGR-Gal4-PPARγ which expresses a fused protein of PPARγ with yeast Gal4 protein. The sequences of primers used for the cloning are as follows: […]
Next, an N terminal sequence (1a.a-76a.a) of the human glucocorticoid receptor (GR) was ligated to the N-terminal of the Gal4 region of pBind so that the reading frame coincided with Gal4. The GR was cloned from the heart cDNA library (Gibco) using PCR. The sequences of primers used for the cloning are as follows: […]
As a reporter plasmid, firefly luciferase expression vector pG5luc (Promega) having 5 copies of the Gal4 binding site introduced into the promoter region was used. CV-1 cells were transfected with the pGR-Gal4-PPARγ and the pG5luc using Lipofect AMINE (Gibco). After the transfection, the medium was replaced with a medium (DMEN, Gibco) with addition of a test sample or control (pioglitazone), and cells were recovered after cultivation for 48 hours. After the cell recovery, cell lysate was prepared using a Dual-Luciferase reporter assay system (Promega) to measure firefly luciferase activity using a luminometer (Luminous CT-9000D, DIA-IATRON). Further, the protein concentration of the cell lysate was measured using a Dc Protein assay (BIO-RAD) to standardize the value of firefly luciferase activity for the protein concentration. The result was expressed as a relative value by setting the value of the negative control to be 1.
A general note: In a reporter assay the amount or activity of a reporter protein is the signal.

For test [3], the system named is C57BL/6 mice (females). The test is described as follows: Improving effect of fractionated lupulone on lipid metabolism in mice (Example 14). The format is in vivo. As to the method: Improving effect of a fractionated lupulone on lipid metabolism was evaluated using C57BL/6 mice (females). Namely, lupulone was purified from hop pellets (CAS pellets, a product of Saaz, Czech Republic). About 2.5 kg of hop pellets were extracted with 4 L of ethyl acetate 3 times and the extract was concentrated under the reduced pressure to obtain a dark green extract (329.17 g). A portion of the extract (262.7 g) was applied on a silica gel column for fractionation. Chromatography was carried out using a stepwise elution with a hexane-ethyl acetate mixed solution to obtain 15 fractions. The third fraction (41.8 g) was applied on a silica gel column for refractionation and a fraction eluted with a hexane:ethyl acetate (20:1) solution was recrystallized to obtain lupulone (1.88 g, white needle crystals, yield: about 0.094%). Further, 5-week-old C57BL/6NCrj female mice (8 per group) (Japan Charles River) were fed CE2 (Japan Clea) and water for 1 week ad libitum. Then, the animals were divided into 2 groups, i.e., a group fed AIN76A (described in Example 2) with addition of 0.2% cholesterol and 0.3% cellulose (referred to as “group C” hereinafter) and a group fed AIN76A with addition of 0.2% cholesterol and 0.3% lupulone (referred to as “group L” hereinafter). The diets were prepared and administered according to the methods described in Example 2. One week after feeding the test diets, the animals were dissected under non-fasting conditions.

Test [4] concerns C57BL/6 mice fed high fat diet. In words: Oral glucose tolerance test in mice with high fat diet-induced insulin resistance (Example 15). In kind it is in vivo. As to the method: C57BL/6 mice were fed the high fat diet shown in Example 8 for 12 weeks to induce insulin resistance and then orally administered with the water soluble hop extract for 10 consecutive days (100 and 330 mg/kg/day). After completion of the administration, animals were fasted for 16 hours and then subjected to an oral glucose tolerance test (OGTT). […] After completion of the administration, animals were fasted for 16 hours and then subjected to an oral glucose tolerance test (OGTT). In OGTT, after blood sampling and blood sugar measurement, 1 g/kg of aqueous glucose solution was administered (at time zero), after which blood sampling and blood sugar measurement were carried out at 15, 30, and 60 minutes and blood sugar measurement was carried out at 120 minutes. Change with time in the blood insulin level was measured using an insulin measuring kit (Morinaga Seikagaku Institute).

[5] abbreviates: purified isocohumulone 10 and 30 mg/kg/day oral, 10 days.

As for `CCC(C)C(=O)C1=C(O)C(O)(C(=O)CC=C(C)C)C(CC=C(C)C)C1=O` (stereo not drawn) [isoadhumulones, isoadhumulone], in test [1], the “PPARγ/RXR alpha activating activity compared to that with 1 μM pioglitazone” value is listed as “almost equivalent” and the “PPARγ/RXR alpha activating activity (relative luciferase activity)” value is listed as “exhibited the activity”.

Consider `CC(C)=CCC1=C(O)C(O)(CC=C(C)C)C(=O)C(C(=O)C(C)C)=C1O` (stereo not drawn) [cohumulones, cohumulone], for which, in test [1], the “PPARγ/RXR alpha activating activity compared to that with 1 μM pioglitazone” value is reported as “almost equivalent” and the “PPARγ/RXR alpha activating activity (relative luciferase activity)” value was “exhibited the activity”. For the same compound, the “PPARγ activating activity (firefly luciferase, relative to negative control)” value in test [2] is recorded as “activity was confirmed”.

On to `CC(C)=CCC1=C(O)[C@](O)(CC=C(C)C)C(=O)C(C(=O)CC(C)C)=C1O` [humulones, humulone], for which, in test [1], the “PPARγ/RXR alpha activating activity compared to that with 1 μM pioglitazone” value is “almost equivalent” and the “PPARγ/RXR alpha activating activity (relative luciferase activity)” value is on record as “exhibited the activity”. In addition, the “PPARγ activating activity (firefly luciferase, relative to negative control)” value in test [2] is reported as “activity was confirmed”.

For the compound `CC(C)=CCC1=C(O)C(CC=C(C)C)(CC=C(C)C)C(=O)C(C(=O)CC(C)C)=C1O` [lupulone], the “cholesterol content per g of liver” value in test [3] (group L 0.3% lupulone in AIN76A + 0.2% cholesterol, one week, non-fasting) is on record as “significant decrease”. Further, in test [3] (group L 0.3% lupulone in diet), the body weight result was “significant decrease” and the “body weight gain per calorie intake” value is listed as “significantly reduced”.

For the compound `CC(C)=CCC(=O)C1(O)C(O)=C(C(=O)C(C)C)C(=O)C1CC=C(C)C` (stereo not drawn) [isocohumulones, isocohumulone], in test [1], the “PPARγ/RXR alpha activating activity compared to that with 1 μM pioglitazone” value is listed as “almost equivalent” and the “PPARγ/RXR alpha activating activity (relative luciferase activity)” value is given as “exhibited the activity”. Further, the “PPARγ activating activity (firefly luciferase, relative to negative control)” value in test [2] is “activity was confirmed”. In addition, the “insulin resistance (blood insulin concentration upon OGTT)” value in test [4] (oral, 10 consecutive days, water soluble extract 100 and 330 mg/kg/day, purified isocohumulone 10 and 30 mg/kg/day) is “amelioration”. In addition, in test [4] (oral, 10 consecutive days, water soluble extract 100 and 330 mg/kg/day, purified isocohumulone 10 and 30 mg/kg/day, 1 g/kg glucose after 16 h fasting), the “glucose tolerance (blood sugar level upon OGTT)” value was “Amelioration”. Moreover, in test [4] (setting [5]), the “insulin concentration before the administration (of glucose)” value is “significantly decreased” and the “insulin concentration thereafter (after glucose administration)” value is recorded as “tended to keep decreasing”.

For the compound `CC(C)=CCC(=O)C1(O)C(O)=C(C(=O)CC(C)C)C(=O)C1CC=C(C)C` (stereo not drawn) [isohumulones, isohumulone], in test [1], the “PPARγ/RXR alpha activating activity compared to that with 1 μM pioglitazone” value is recorded as “almost equivalent” and the “PPARγ/RXR alpha activating activity (relative luciferase activity)” value is reported as “exhibited the activity”. Further, the “PPARγ activating activity (firefly luciferase, relative to negative control)” value in test [2] is “activity was confirmed”.
